Results reported in patent US5965539A, “Inhibitors of prenyl transferases” (Univeristy of Pittsburgh, priority 1996, dated 1999).
Read-outs that look alike come from different tables or passages of the source.

Legend:
[1] = molecular target: T1, FTase (Homo sapiens, UniProt P49356); assay: FTase activity assay: transfer of [3H]farnesyl from FPP to recombinant H-Ras-CVLS, Daudi 60,000xg supernatant; type: biochemical; conditions: Table 1
T1 construct: FTase and GGTase I activities from 60,000×g supernatants of human Burkitt lymphoma (Daudi) cells; endogenous in cells; host or cells: human Burkitt lymphoma (Daudi) cells, 60,000xg supernatant (partially purified)
T1 sequence (P49356 whole entry): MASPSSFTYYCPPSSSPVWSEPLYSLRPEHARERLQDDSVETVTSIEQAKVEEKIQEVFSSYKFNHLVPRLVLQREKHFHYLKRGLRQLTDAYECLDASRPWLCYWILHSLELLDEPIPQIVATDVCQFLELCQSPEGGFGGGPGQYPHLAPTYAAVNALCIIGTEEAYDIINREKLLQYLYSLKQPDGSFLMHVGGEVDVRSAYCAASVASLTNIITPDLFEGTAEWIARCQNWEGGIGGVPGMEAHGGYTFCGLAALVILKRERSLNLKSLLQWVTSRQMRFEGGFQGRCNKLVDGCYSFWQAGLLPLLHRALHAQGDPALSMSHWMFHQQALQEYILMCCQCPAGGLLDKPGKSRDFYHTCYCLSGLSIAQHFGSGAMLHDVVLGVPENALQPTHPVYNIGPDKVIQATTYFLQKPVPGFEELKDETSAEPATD

[2] = molecular target: T2, GGTase I (Homo sapiens, UniProt P53609); assay: GGTase I activity assay: transfer of [3H]geranylgeranyl to recombinant H-Ras-CVLL, Daudi 60,000xg supernatant; type: biochemical; conditions: Table 1; read-out: GGTase I IC50
T2 construct: FTase and GGTase I activities from 60,000×g supernatants of human Burkitt lymphoma (Daudi) cells; endogenous in cells; host or cells: human Burkitt lymphoma (Daudi) cells, 60,000xg supernatant (partially purified)
T2 sequence (P53609 whole entry): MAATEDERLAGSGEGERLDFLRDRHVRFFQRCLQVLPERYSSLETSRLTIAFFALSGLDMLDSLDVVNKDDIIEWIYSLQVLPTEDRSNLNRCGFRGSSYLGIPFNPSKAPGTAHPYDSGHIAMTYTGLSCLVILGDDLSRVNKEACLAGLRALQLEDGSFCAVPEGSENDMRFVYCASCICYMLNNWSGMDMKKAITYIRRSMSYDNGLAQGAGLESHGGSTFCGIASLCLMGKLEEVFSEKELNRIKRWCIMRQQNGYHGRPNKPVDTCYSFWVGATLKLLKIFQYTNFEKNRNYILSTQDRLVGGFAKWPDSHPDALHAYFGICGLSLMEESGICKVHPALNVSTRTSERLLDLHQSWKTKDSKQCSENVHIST

[3] = system: K-Ras4B processing; assay: K-Ras4B processing assay in NIH 3T3 cells overexpressing oncogenic K-Ras4B; type: cell-based; conditions: whole cells
From the text: H-Ras cells (45) and K-Ras4B Cells (32) were kind gifts from Dr. Channing Der and Dr. Adrienne Cox (University of North Carolina, Chapel Hill). Means of obtaining these cell lines will be easily recognized by the skilled practitioner.

[4] = system: RasGG processing; conditions: 5 μM, FIG. 2B
Description: (§1) H-RasF cells (45) were seeded on day 0 in 100 mm Dishes (costar) in Dulbecco's modified Eagles medium (GIBCO) and allowed to grow to 40-60% confluency. […] On day 3, cells were washed one time with ice cold PBS and were collected and lysed by incubation for 30-60 min on ice in lysis buffer (41). Lysates were cleared (14,000 rpm, 4° C., 15 min) and supernatants collected. Equal amounts of lysate were separated on a 12.5% SDS-PAGE, transfered to nitrocellulose, and a western blot performed using a anti-Ras antibody (Y13-238, ATCC) or anti-Rap1A antibody (Santa Cruz Biotechnology, Santa Cruz, Calif.). Antibody reactions were visualized using peroxidase-conjugated goat anti-rat IgG for Y13-238 and peroxidase-conjugated goat anti-rabbit IgG for Rap1A and an enhanced chemiluminescence detection system (ECL; Amersham Corp.)

[5] = system: endogenous Ras processing; conditions: 5 μM, pZIPneo and Raf cells
Description: as §1

[6] = system: Ras/Raf complexes; conditions: 5 μM, H-RasF cells
Description: Cells were seeded on day 0 in 100 mm dishes in 10 ml Dulbecco's Modified Eagles Medium (GIBCO) supplemented with 10% calf serum (Hyclone) and 1% pen/strep (GIBCO). […] On day 3, cells were collected by centrifugation in ice cold PBS. Cell pellets were then resuspended in ice cold hypotonic buffer (10 mM Tris, pH 7.5, 5 mM MgCl2, 1 mM DTT, 1 mM PMSF) and cells were sonicated to break up cell pellet to promote separation of cytosol and membrane. The cell suspension was then centrifuged at 2,000 rpm for 10 min to clear debris after which the supernatant was loaded in ultrocentrifuge tubes and spun for 30 min at 100,000×g to SW Ti55 Rotor to separate membrane and cytosol fractions. The cytosol and membrane fractions were lysed on ice for 60 min in buffer containing 30 mM HEPES, pH 7.5, 1% TX-100, 10% glycerol, 10 mM NaCl, 5 mM MgCl2, 2 mM Na3 VO4, 25 mM NaF, 1 mM EGTA, 10 μM soybean trypsin inhibitor, 25 μg/ml leupeptin, 10 μg/ml aprotinin, 2 mM PMSF). The lysates were clarified by centrifugation. Equal amounts of cytosol and membrane fractions were immunoprecipitated using 50 μl of a 25% Protein-A Sepharose Cl-4B suspension (Sigma) with 1 μf/ml anti-c-Raf-1 (SC133, Santa Cruz Biotechnology, Santa Cruz, Calif.). The samples were tumbled at 4° C. for 60 min and then washed 5 times in 50 mM HEPES, pH 7.5, 100 mM NaCl, 5 mM MgCl2, 0.1% TX-100, 10% glycerol, 20 mM NaF. […]

Work on `COC(=O)[C@H](CCSC)NC(=O)c1ccc(NC[C@@H](N)CS)cc1-c1ccccc1` [FTI-277, 4-N-[2(R)-Amino-3-mercaptopropyl]amino-2-phenylbenzoyl methionine methyl ester] yielded a GG/F ([1]; ratio GGTase I IC50 / FTase IC50) of 32, an IC50 ([1]; read-out: FTase IC50) of 0.05 µM and an IC50 [2] of 1.6 µM. For the same compound, the IC50 ([3]; Table 5, read-out: In Vivo Processing IC50 K-Ras) was 10 µM, the IC50 ([3]; read-out: K-Ras4B processing IC50) was 10 µM and the “processing of RasGG” value [4] was “not affected”. The “processing of endogenous Ras” value [5] was “blocked” and the “Ras/Raf association in membrane and cytosolic fractions” value [6] was “accumulation of Ras/Raf complexes in the cytosolic but not membrane fractions”.
